# According to PubChem BioAssay AID588780 (Sanford-Burnham Center for Chemical Genomics, 2011):
# Calls of active or inactive are those of the source.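 The calls were made as follows: active = compounds whose fitted half-maximal concentration in the cell-protection dose series is at or below a set limit; inactive = the rest.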
# Tested on: H9c2 cardiomyocytes, 2-deoxyglucose stress, ATP luminescence, 2 h
# Experiment: H9c2 cell survival under 2-deoxyglucose stress – uHTS hits, dose response (AID 588780)
row,SMILES,IC50
1,Cc1nn2c(-c3cccc(NC(=O)c4ccco4)c3)nnc2c2ccccc12,> 79 µM (inactive)
2,C[C@@H]1ON(C)[C@H]2C[C@H]3c4[nH]c5ccc(-c6ccc7c(c6)OCO7)cc5c4CCN3C[C@@H]12,54.8 µM (inactive)
3,CCCNC(=O)c1ccc2c(=O)c(O)c(-c3ccc(F)cc3)[nH]c2c1,> 79 µM (inactive)
4,CCCOc1ccc2[nH]c(C(=O)N/N=C/c3cc(OC)c(OC)c(OC)c3)cc2c1,9.02 µM
5,COc1cc(-c2cnc3c(NC=O)cc(-c4ccsc4)cn23)cc(OC)c1OC,> 79 µM (inactive)
6,O=C(C[C@@H]1C/C=C/CC[C@@H](Cc2ccc(F)cc2)C(=O)O[C@@H](c2ccccc2)CNC1=O)NCCO,15.1 µM
7,COC(=O)c1ccc(C(C(=O)NCc2ccccc2)N(Cc2cccs2)C(=O)c2cnccn2)cc1 (stereo not drawn),14.7 µM
8,O=C1N[C@H]2CC=C[C@H]2Nc2ccccc21,> 79 µM (inactive)
9,COc1ccccc1-c1cc(C(=O)N/N=C/C=C/c2ccccc2[N+](=O)[O-])c2ccccc2n1,> 79 µM (inactive)
10,CC(OC(=O)Cc1n[nH]c(=O)c2ccccc12)C(=O)Nc1cccc([N+](=O)[O-])c1 (stereo not drawn),44.4 µM (inactive)
11,COc1ccc2[nH]c(=O)c(CN(CCc3ccccc3)Cc3nnnn3CC3CCCO3)cc2c1 (stereo not drawn),> 79 µM (inactive)
12,O=C(Nc1nc(-c2cc(F)ccc2F)cs1)C1=NN(c2ccccc2)C(=O)CC1,> 79 µM (inactive)
13,O=C(Cn1[nH]c(=O)c2ccccc2c1=O)NNC(=O)c1ccccc1,9.4 µM
14,COc1ccc(NS(=O)(=O)c2cc(NC(=O)Cc3n[nH]c(=O)c4ccccc34)ccc2OC)cc1,> 79 µM (inactive)
15,COC(=O)c1cc2ccc(OC)cc2c2cc(OC)c(OC)cc12,> 79 µM (inactive)
16,S=C(Nc1ccc(N2CCOCC2)cc1)Nc1ccc2nc(-c3ccco3)c(-c3ccco3)nc2c1,> 79 µM (inactive)
17,Cc1cc(C)c(C)c(S(=O)(=O)N2CCN(C(=O)CCc3nc4ccccc4c(=O)[nH]3)CC2)c1C,> 79 µM (inactive)
18,O=C(CSc1nc2ccccc2c(=O)[nH]1)N1CCCCCC1,> 79 µM (inactive)
19,C/C(=N\NC(=O)c1c(Br)c(C)nn1C)c1ccc(NC(=O)c2ccoc2C)cc1,> 79 µM (inactive)
20,COc1cc(/C=N/NC(=O)c2ccccc2)ccc1OS(=O)(=O)c1ccccc1,9.14 µM
21,O=c1c2ccccc2nc2c3ccccc3c(NCCO)nn12,45.5 µM (inactive)
22,Cc1sc2nc(NCCO)[nH]c(=O)c2c1C,> 79 µM (inactive)
23,Cc1ccc(-c2n[nH]c(=O)c3ccccc23)cc1N,17.5 µM
24,O=C(CN1CCN(Cc2ccccc2)CC1)Nc1ccc([N+](=O)[O-])cc1C(=O)Nc1ccccc1F,35.6 µM (inactive)

row,SMILES,IC50
1,O=C(CN1CCN(c2ccccn2)CC1)Nc1ccc([N+](=O)[O-])cc1C(=O)Nc1ccccc1F,11.3 µM
2,CC(C)(C)OC(=O)C[C@@H]1C/C=C\C[C@@H](CC(=O)N[C@H](CO)Cc2ccccc2)C(=O)NC[C@@H](c2ccccc2)OC1=O,> 79 µM (inactive)
3,NC(=O)c1nsc(C(=O)N(c2ccccc2F)C(C(=O)NCc2ccc(F)cc2)c2ccc(O)cc2)c1N (stereo not drawn),> 79 µM (inactive)
4,NC(=O)c1oc2ccccc2c1NC(=O)c1ccco1,29.4 µM
5,COc1ccc(C2CCCCCN2C(=O)C2CCN(S(=O)(=O)c3cccc(C(C)=O)c3)CC2)cc1 (stereo not drawn),> 79 µM (inactive)
6,COCCCN(Cc1ccco1)C(=O)Cn1ncc2c([nH]c3ccccc32)c1=O,13.8 µM
7,CCOC(=O)C(Cc1ccc(NC(=O)/C(=C/c2ccc(OC(C)=O)cc2)NC(C)=O)cc1)N1C(=O)c2ccccc2C1=O (stereo not drawn),> 79 µM (inactive)
8,Cc1ccc(-c2n[nH]c(=O)c3ccccc23)cc1S(N)(=O)=O,> 79 µM (inactive)
9,O=C(Cn1[nH]c(=O)c2ccccc2c1=O)N1CC=C(c2ccccc2)CC1,21 µM
10,CCN(CC)C(=O)c1ccc(-c2nnc(Nc3ccc(O)cc3)c3ccccc23)cc1,71.4 µM (inactive)
11,COc1cccc(C(=O)Nc2nnc(-c3ccc(Cl)cc3)o2)c1,14.9 µM
12,Cc1cnc(NC(=O)CSc2nc3ccccc3c(=O)[nH]2)s1,> 79 µM (inactive)
13,O=C(CCc1nc2ccccc2c(=O)[nH]1)NCC(=O)Nc1ccc(F)c(F)c1,> 79 µM (inactive)
14,CCOC(=O)c1cc(-c2ccc(/C=N\n3cnnc3)o2)ccc1Cl,> 79 µM (inactive)
15,COc1ccc(NS(=O)(=O)c2ccc3ccccc3c2)c2ncccc12,> 79 µM (inactive)
16,CN(C)S(=O)(=O)n1cc(/C=C(\NC(=O)c2ccccc2F)C(=O)NCCN2CCOCC2)c2ccccc21,> 79 µM (inactive)
17,COc1ccc(Cl)cc1NC(=O)CN(C)C(=O)Cc1n[nH]c(=O)c2ccccc12,> 79 µM (inactive)
18,COC(=O)c1[nH]c2c(c1C)C(=O)CC(c1cc(OC)ccc1OC)C2 (stereo not drawn),> 79 µM (inactive)
19,O=C(Cc1n[nH]c(=O)c2ccccc12)NCc1ccc(Cl)cc1,> 79 µM (inactive)
20,Cc1nn(-c2ccccc2)c(Cl)c1C(=O)NNC(=O)c1ccccc1O,> 79 µM (inactive)
21,O=C(CCc1nc2ccccc2c(=O)[nH]1)NCc1ccco1,> 79 µM (inactive)
22,O=C(Nc1nnc(-c2ccc3c(c2)CCCC3)o1)c1ccccc1,23.3 µM
23,COc1cccc(Cn2nc(C(=O)O)c3ccccc3c2=O)c1,32.3 µM (inactive)
24,CCc1nc(N2CCN(C(=O)c3ccco3)CC2)c2oc3ccccc3c2n1,> 79 µM (inactive)

row,SMILES,IC50
1,O=C(NCCN1CCOCC1)c1cnn2c(-c3ccccc3)cc(-c3ccccc3)nc12,18.5 µM
2,COc1ccc(NC(=O)CN(C)C(=O)Cc2n[nH]c(=O)c3ccccc23)cc1,> 79 µM (inactive)
3,CCCCc1nc2sc3c(c2c(=O)[nH]1)CCC3,> 79 µM (inactive)
4,CC(C)c1cc(N2CCN(C(=O)c3ccco3)CC2)n2c(nc3ccccc32)c1C#N,28.5 µM
5,O=c1[nH]c(CN2CCCC2)nc2sc3c(c12)CCC3,> 79 µM (inactive)
6,CCOc1ccc2[nH]c(=O)c(CN(CCO)C(c3nnnn3C3CCCCC3)C(C)C)cc2c1 (stereo not drawn),> 79 µM (inactive)
7,NC(=O)c1cc2ccccc2o/c1=N\NC(=O)c1ccc(F)cc1,8.81 µM
8,CCN(C[C@H]1N[C@@](Cc2ccccc2)(C(=O)OC)[C@H]2C(=O)N(C)C(=O)[C@@H]12)S(=O)(=O)c1ccc(OC)cc1,37.2 µM (inactive)
9,CC1Cc2ccccc2N1C(=O)COC(=O)c1n[nH]c(=O)c2ccccc12 (stereo not drawn),> 79 µM (inactive)
10,CCCc1cc(=O)oc2c(CNc3ccc(OCC)cc3)c(O)ccc12,17.4 µM
11,COc1ccc(-c2cc(NC=O)c3ncc(-c4ccccc4)n3c2)cc1OC,> 79 µM (inactive)
12,COC(=O)/C(=C(O)\C=C\c1ccccc1[N+](=O)[O-])c1nc2ccccc2[nH]1,> 79 µM (inactive)
13,COC(=O)c1ccc(OCC(=O)Nc2ccccc2C(=O)NC2CC2)cc1,10.6 µM
14,CC(Oc1cccc(Br)c1)C(=O)NNC(=O)c1ccccn1 (stereo not drawn),> 79 µM (inactive)
15,COc1ccc(-c2cc(C(F)(F)F)n3nc(C(=O)N4CCN(C(=O)c5ccco5)CC4)cc3n2)cc1,> 79 µM (inactive)
16,COc1ccc2[nH]c(=O)c(CNC3CCCCC3)cc2c1,> 79 µM (inactive)
17,CN(C)N(Cc1ccccc1)C(=O)C(O)(c1ccccc1)c1ccccc1,> 79 µM (inactive)
18,CN(CC1COc2ccccc2O1)c1nc(-c2cccnc2)nc2ccccc12 (stereo not drawn),> 79 µM (inactive)
19,O=C(Nc1ccc2c(c1)[nH]c(=O)c1ccccc12)C(F)(F)F,> 79 µM (inactive)
20,CCCCOc1ccc(C(=O)NCC(=O)N(C)Cc2nc3ccccc3c(=O)[nH]2)cc1,> 79 µM (inactive)
21,CCOC(=O)C1=c2s/c(=C\c3ccncc3)c(=O)n2C(N)=C(C(=O)OC)C1c1ccncc1 (stereo not drawn),> 79 µM (inactive)
22,COc1ccccc1-c1cc(NC(C)=O)c2ncc(-c3cccc(C(C)=O)c3)n2c1,13.5 µM
23,Cc1nnc(SCC(=O)N/N=C/c2cn(-c3ccccc3)nc2-c2ccccc2)n1-c1ccccc1,14 µM
24,COc1cc(/C=N/NC(=O)c2cccnc2)ccc1OS(=O)(=O)c1ccc(F)cc1,14.1 µM

row,SMILES,IC50
1,C/C(=N\NC(=O)c1nnn(-c2nonc2N)c1CSc1ccc(C)cc1)c1cccnc1,> 79 µM (inactive)
2,COc1ccc(NC(=O)CCc2nc3ccccc3c(=O)[nH]2)cc1S(=O)(=O)N1CCCCC1,> 79 µM (inactive)
3,COc1ccc(OC)c(Nc2nc(N)c([N+](=O)[O-])c(N3CCOCC3)n2)c1,20.9 µM
4,COc1ccc(C2/C=C\CN(S(=O)(=O)c3cccc4cccnc34)CC(=O)N2Cc2ccc(F)cc2)cc1 (stereo not drawn),> 79 µM (inactive)
5,Cc1cc(O)c(C=Nc2ccc(N3CCOCC3)cc2)c(C)c1Cl,> 79 µM (inactive)
6,O=C(NCCc1ccc(F)cc1)C(=O)Nc1cc2c3c(c1)CC(=O)N3CCC2,26.9 µM
7,CCOc1ccc(-n2c(C)c(C(C)=O)c3cc(OC(C)=O)ccc32)cc1,> 79 µM (inactive)
8,Cc1ccc(C(=O)Nc2cccc(C(F)(F)F)c2)cc1NC(=O)c1csc(-c2ccncc2)n1,> 79 µM (inactive)
9,CCOc1ccc(CCNC(=O)c2cc3c(C)nccc3[nH]c2=O)cc1OCC,12.4 µM
10,CCC(=O)OCCNc1cc(SCCC(=O)OC)c2nonc2c1[N+](=O)[O-],> 79 µM (inactive)
11,O=c1cc(COc2ncnc3c(Cl)cc(Cl)cc23)nc2sccn12,> 79 µM (inactive)
12,O=C(NCC(=O)N(Cc1ccccc1)C(C(=O)NC1CCCCC1)c1ccco1)c1ccco1 (stereo not drawn),16.2 µM
13,CC(=O)c1cccc(-c2cnc3c(NC=O)cc(-c4cccc(C(=O)N(C)C)c4)cn23)c1,19.5 µM
14,CS/C(=N\S(=O)(=O)c1ccccc1)c1ccccc1,41.3 µM (inactive)
15,CCOC(=O)C1=C(COC(=O)/C=C/c2ccc(F)cc2)NC(=O)NC1C (stereo not drawn),16.2 µM
16,Cc1ccc(NC(=O)CCc2nc3ccccc3c(=O)[nH]2)cc1S(=O)(=O)N1CCOCC1,> 79 µM (inactive)
17,COc1ccc(OCC(O)Cn2c(Nc3cccc(C)c3)nc3c2c(=O)n(C)c(=O)n3C)cc1 (stereo not drawn),> 79 µM (inactive)
18,Cn1c2c(c(=O)n(C)c1=O)C(c1cccc([N+](=O)[O-])c1)Nc1ccccc1O2 (stereo not drawn),> 79 µM (inactive)
19,CCOc1cc(/C=N/NC(N)=O)cc(Br)c1OCC(=O)Nc1cccc2ccccc12,> 79 µM (inactive)
20,O=C(COc1ccccc1Cl)NNC(=O)Cn1[nH]c(=O)c2ccccc2c1=O,> 79 µM (inactive)
21,CC1Nc2ncnc(N3CCN(c4ccccc4)CC3)c2N(Cc2ccc(Br)cc2)C1=O (stereo not drawn),> 79 µM (inactive)
